Data set [1] is described as follows: Animal study (pharmacokinetics), gavage, CBD blood concentration by HPLC. It is filed as in vivo. The following applies: rat. The method, then:
According to the results of the dissolution study, compositions were prepared by adhering to the ratios of the present invention.
6 rats weighing 250+/−20 grams were used per each study group and a total of 5 groups were used. The compositions were administered by gavage at the human dose equivalent of 40 mg CBD per composition.
The results were analyzed by blood draws at each of the time points over an 8 hour period. An HPLC system was used to determine the blood concentration of CBD at the specified time points. The blood concentrations were given as (μg/mL)
The average CBD blood concentration of the groups were used to determine the pharmacokinetic parameters of Cmax, AUC and Tmax.

Data set [2] is described as follows: Dissolution study, USP type II apparatus, HPLC quantification of CBD released. It is filed as physicochemical. The following applies: 900 ml pH 6.8 phosphate buffer. The method, then:
Dissolution study was performed in 900 ml volume with a USP type II apparatus at pH 6.8 phosphate buffer. HPLC analysis (as per below) was used to quantify the amount of CBD released at each time point.
• Method: High Performance Liquid Chromatography (HPLC); Shimadzu LC-2040 3D Nexera-i • Wave lenght: 220 nm • Column 100 mm*4.6 mm; 5 μm C18 (InertSustain) • Column Temperature: 25° C. • AutoSampler Temperature: 5° C. • Injection Volume: 5 μL • Flow rate: 1.0 mL/min • Mobile Phase: Methanol:Water (85:[…]) • Diluent: Methanol • Run Time: Cannabidiol=3.7 min

Molecules are shown by their SMILES. Where two headings read alike, the source gives them in different places.

By AUC(0-t) is commonly meant the area under the concentration-time curve up to a stated or last time point. By Cmax is commonly meant the peak of the concentration-time curve.

In the case of `C=C(C)[C@@H]1CCC(C)=C[C@H]1c1c(O)cc(CCCCC)cc1O` [CBD API, Cannabidiol], the concentration at 0 h in data set [1] (blood, oral, 40 mg CBD (human dose equivalent), hour 0, rats, human dose equivalent of 40 mg CBD, group average) stood at 0 ng/mL. Further, the concentration at […] in data set [1] (blood, oral, 40 mg CBD (human dose equivalent), hour 0.083, rats, human dose equivalent of 40 mg CBD, group average) came out at 8 ng/mL. For the same compound, in data set [1] (blood, oral, 40 mg CBD (human dose equivalent), hour 0.25, rats, human dose equivalent of 40 mg CBD, group average), the concentration at 0.25 h stood at 11 ng/mL. For the same compound, the concentration at 0.5 h in data set [1] (blood, oral, 40 mg CBD (human dose equivalent), hour 0.5, rats, human dose equivalent of 40 mg CBD, group average) came out at 15 ng/mL. Moreover, the concentration at 1 h in data set [1] (blood, oral, 40 mg CBD (human dose equivalent), hour 1, rats, human dose equivalent of 40 mg CBD, group average) came to 13 ng/mL. Moreover, the concentration at 2 h in data set [1] (blood, oral, 40 mg CBD (human dose equivalent), hour 2, rats, human dose equivalent of 40 mg CBD, group average) amounted to 11 ng/mL. Further, the concentration at 4 h in data set [1] (blood, oral, 40 mg CBD (human dose equivalent), hour 4, rats, human dose equivalent of 40 mg CBD, group average) was 8 ng/mL. Further, the concentration at 8 h in data set [1] (blood, oral, 40 mg CBD (human dose equivalent), hour 8, rats, human dose equivalent of 40 mg CBD, group average) was 6 ng/mL. The Tmax in data set [1] (blood, po, 40 mg CBD (human dose equivalent), rats, read-out: Tmax after administration (converted)) is 30 min; in data set [1] (blood, po, rats, human dose equivalent of 40 mg CBD, read-out: Tmax), 30 min. In addition, the AUC(0-t) in data set [1] (blood, po, rats, human dose equivalent of 40 mg CBD) came out at 71 ng·h/mL. In addition, the maximum concentration (Cmax) in data set [1] (po, rats, human dose equivalent of 40 mg CBD, from average blood concentration) was found to be 15 ng/mL. In addition, the “% CBD API Released” value in data set [2] (5 min) was 1,89%; in data set [2] (10 min), 1,89%; in data set [2] (15 min) it was 2,05%; in data set [2] (30 min), 2%; in data set [2] (60 min) it was 2,01%; in data set [2] (120 min), 1,97%. The “% CBD API Released” value in data set [2] (180 min) was 2,2%; in data set [2] (240 min) it was 2,32%.

(Values after US12629383B2, “Cannabinoid compositions with high solubility and bioavailability” (priority 2020, dated 2026).)
